Each block holds one molecule with its values, some of them ahead of it.
How the values were obtained:
Type in all cases: physicochemical
[1] = Relative dielectric constant of nonpolar solvent; conditions: 1 kHz, 20° C. and 40% RH
Method: The relative dielectric constant is determined by injecting a nonpolar solvent in a glass cell with a 10-μm cell gap provided with an ITO transparent electrode, and measuring the electrical capacity of the obtained cell using a 2353LCR METER manufactured by NF Corporation (measurement frequency: 1 kHz) at 20° C. and 40% RH.

[2] = Solubility of dye in nonpolar solvent; conditions: for Solubility Dihexyl ether: in dihexyl ether at 25° C. and 0.1 MPa; for Solubility n-Decane: in n-decane at 25° C. and 0.1 MPa
Method: Each of the prepared 20% by mass solutions (dye compositions) was heated at 50° C. and then left standing at room temperature for 12 hours to obtain a supernatant liquid. The amount of the unsolved dye was weighed and the solubility of each pigment in dihexyl ether or n-decane at 25° C. and 0.1 MPa was calculated.

[3] = High temperature suitability of dye composition; conditions: 180° C. for 2 hours without a cap; for High temperature suitability, Dihexyl ether (present invention): 20% by mass dye in dihexyl ether; for High temperature suitability, Dipentyl ether (present invention): 20% by mass dye in dipentyl ether; for High temperature suitability, Decane (comparative): 20% by mass dye in n-decane
Method: Each dye composition was placed in a vial, and the vial was left standing in an oil bath without a cap at 180° C. for 2 hours. The mass of the vial after standing was weighed and evaluated according to the following evaluation criteria.
A: Decrease in the mass of the vial was less than 10%.
B: Decrease in the mass of the vial was 10% or more.

[4] = Low temperature suitability of dye composition; set-up: key: A dye composition was maintained in a liquid state.; B: A dye composition was not maintained in a liquid state, and changed to a solid state; conditions: -41° C. for 12 hours; for Low temperature suitability, Dihexyl ether (present invention): 20% by mass dye in dihexyl ether; for Low temperature suitability, Dipentyl ether (present invention): 20% by mass dye in dipentyl ether; for Low temperature suitability, Decane (comparative): 20% by mass dye in n-decane
Method: Each dye composition was placed in a vial, and the vial was left standing in an ice bath (calcium chloride+ice) at −41° C. for 12 hours. The condition of each dye composition after standing was observed and evaluated according to the following evaluation criteria.
A: A dye composition was maintained in a liquid state.
B: A dye composition was not maintained in a liquid state, and changed to a solid state.

Compound: CCCCCCCCCCCCOCCCCCCCCCCCC [didodecyl ether]
relative dielectric constant ∈r [1]: 2.1

Compound: CCCCCCCOCCCCCCC [diheptyl ether]
relative dielectric constant ∈r [1]: 2.1

Compound: CCCCCOCCCCC [dipentyl ether]
relative dielectric constant ∈r [1]: 2.1

Compound: CCCCCCOCCCCCC [dihexyl ether]
relative dielectric constant ∈r [1]: 2.1

Compound: C1CCC(OC2CCCCC2)CC1 [dicyclohexyl ether]
relative dielectric constant ∈r [1]: 2.1

Second part, led by results:

Solubility Dihexyl ether [2]: 20 or more % by mass
Solubility n-Decane [2]: 20 or more % by mass
Low temperature suitability, Dihexyl ether (present invention) [4]: A
Low temperature suitability, Dipentyl ether (present invention) [4]: A
Low temperature suitability, Decane (comparative) [4]: B
Compound: CCCCC(CC)CN(CC(CC)CCCC)c1ccc(/N=C2/C(C)=Nn3nc(C(C)(C)C)nc32)cc1 (stereo not drawn) [Dye P-2]
High temperature suitability, Dihexyl ether (present invention) [3]: A (Decrease in the mass of the vial was less than 10%.)
High temperature suitability, Dipentyl ether (present invention) [3]: A (Decrease in the mass of the vial was less than 10%.)
High temperature suitability, Decane (comparative) [3]: B (Decrease in the mass of the vial was 10% or more.)

Solubility Dihexyl ether [2]: 20 or more % by mass
Solubility n-Decane [2]: 20 or more % by mass
Low temperature suitability, Dihexyl ether (present invention) [4]: A
Low temperature suitability, Dipentyl ether (present invention) [4]: A
Low temperature suitability, Decane (comparative) [4]: B
Compound: CCCCC(CC)CN(CC(CC)CCCC)c1ccc(/C=C2\C(=O)ON=C2C(C)(C)C)c(C)c1 (stereo not drawn) [Dye P-1]
High temperature suitability, Dihexyl ether (present invention) [3]: A (Decrease in the mass of the vial was less than 10%.)
High temperature suitability, Dipentyl ether (present invention) [3]: A (Decrease in the mass of the vial was less than 10%.)
High temperature suitability, Decane (comparative) [3]: B (Decrease in the mass of the vial was 10% or more.)
